Six molecules from patent EP1125931A1, “Biocidal alkyl-substituted-(hetero)aryl-ketoxime-O-ethers and the production method thereof” (Hunan Research Institute of Chemical Industry, priority 2000, dated 2001) can be followed below.

What is called inhibition is the relative decrease from the control value, in per cent.

The structures appear in SMILES notation. Read-outs that look alike come from different tables or passages of the source.

The subject of one data set is Spotted cutworm. The experiment in a line: Biological activity (LC50) against spotted cutworm. The format is in vivo.
The subject of another data set is Green peach aphid. The experiment in a line: Biological activity (LC50) against green peach aphid. The format is in vivo.
In a further data set the test system is Spinach army worm. The experiment in a line: Biological activity (LC50) against spinach army worm. The format is in vivo.
The next data set concerns American tobacco cutworm. The experiment in a line: Biological activity (LC50) against American tobacco cutworm. The format is in vivo.
A further data set concerns Mythimne separata. The experiment in a line: Test for the biological activity against Mythimne separata (spray, Petri dish with corn fragments). The format is in vivo. The conditions noted are these: after 24 hours. How it is done:
Emulsion oil or wettable powder of the alkyl-substituted-(hetero)aryl-ketoxime-o-ether, intermediate ketone, or the active oxime compound of this invention prepared by the procedure described in the Examples for preparing a controlling agent in agriculture described above was diluted with water to prepare a solution of agricultural chemical having a certain concentration.
Ten heads of Mythimne separata and 5 pieces of corn fragments were placed in a Petri dish, and it was sprayed with a certain amount of agricultural chemical solution. After the exposure, it was kept in a room for normal cultivation. After 24 hours, number of live and dead insects were counted. Test was run 3 times, and results were averaged. […] Some compounds (I) [such as Code No. 5, 8, and 30] shown in Table 1] gave 100% lethal rate even when the concentration was lower than 500 ppm.

A further data set concerns aphids Aphis fabae. The experiment in a line: Test for the biological activity against aphids (seedling dip). The format is in vivo. The conditions noted are these: after 24 hours; for lethal rate: at a lower concentration (than 250 ppm); for aphids killed: concentration 250 ppm (content of effective component), average of 3 tests. How it is done: Emulsion oil or wettable powder of the alkyl-substituted-(heteroaryl-ketoxime-o-ether, ketone intermediate or active oxime compound of this invention prepared by the method described in the Example for preparing a controlling agent in agriculture was diluted with water to prepare a solution of agricultural chemical having a certain concentration. Aphids were inoculated in the new seedlings (more than 15). Then, the seedlings, together with the aphids, were dipped in the solution of agricultural agent for 5 seconds, removed, and excess liquid was drained. They were placed in a water-absorbing sponge, and held by glass rods. After 24 hours, the number of live and dead aphids was examined. Test was run 3 times, and the results were averaged. With a series of compound (I) [Code No. 5, 8, 21, 22, 23, 30, 33, 46, 47, 48], the aphids were killed 100% when the concentration was 250 ppm (calculated as the content of effective component). Some compounds (I) [Code No. 5, 8, and 30 in Table 1] gave 100% lethal rate with the aphids, even at a lower concentration.

Data set [1] relates to leafhopper Nephotetlix cimeticeps. The experiment in a line: Test for the biological activity against leafhopper (rice seedling dip). The format is in vivo. To be noted: after 24 hours; for kill rate: at a lower concentration (than 250 ppm); for leafhoppers killed: concentration 250 ppm (content of effective component), average of 3 tests. How it is done:
Emulsion oil or wettable powder of the alkyl-substituted-(hetero)aryl-ketoxime-o-ether, ketone intermediate, or active oxime compound of this invention prepared by the method described in the Example for preparing a controlling agent in agriculture was diluted with water to prepare a solution of agricultural chemical having a certain concentration. Rice seedlings (second semester) were dipped in the solution of agricultural agent for 5 seconds, and then removed. It was drained and then placed in a large test tube. Each test tube contained 20 seedlings. Then, 20 leafhoppers (5th instar) were introduced in the tube, and the mouth of the tube was covered with a white cheesecloth. The tube was kept at room temperature, and number of live and dead leafhoppers was examined after 24 hours. Test was run 3 times, and results were averaged.

The next data set concerns fungal pathogens. The experiment in a line: Test for antifungal activity (mycelial growth on PDA media). The format is cell-based. To be noted: against one or more fungal pathogens; concentration 100 ppm; 72 hours of cultivation; read-out: growth inhibition rate. How it is done: Alkyl-substituted-(hetero)aryl-ketoxime-o-ether, ketone intermediate, or active oxime compound of this invention was diluted with an appropriate diluting agent (such as propanone) to prepare a parent solution having a certain concentration. One ml of this solution was taken with a pipette into 50 ml of molten PDA media. After shaking thoroughly, it was poured into two Petri dishes, to create duplicate. After cooling, a mycelial pad (diameter = about 4 mm) was taken and inoculated on the center of the culture dish. The diluting agent was used as the control. After inoculation, the dish was kept in an incubator set at an appropriate temperature. After 72 hours of cultivation, length (diameter of the colony) of the growth of mycelia was measured, and fungal growth inhibition rate was calculated.

Where [2] appears, read: concentration 500 ppm (content of effective component), average of 3 tests.
[3] abbreviates: concentration lower than 500 ppm.

With `CSCC(=NOCc1cccc(Oc2ccccc2)c1)c1ccc(Cl)cc1` [Code No. 5 E-form], the LC50 result is recorded as “LC50 (ppm) < 5” in the data set on Spotted cutworm, “LC50 (ppm) > 100” with Green peach aphid, “LC50 (ppm) < 5” in the data set with Spinach army worm and “LC50 (ppm) < 10” with American tobacco cutworm.

For the molecule `CSCC(=NOCc1cccc(Oc2ccccc2)c1)c1ccc(Cl)cc1` [Code No. 5], the lethal rate entry in the data set with Mythimne separata (setting [2]) is “exceeding 100%”. The molecule further came in with a lethal rate with Mythimne separata (setting [3]) of 100%. Besides, in the data set on aphids Aphis fabae, the lethal rate amounted to 100% and the aphids killed was 100%. Besides, in data set [1], the kill rate is listed as 100% and the leafhoppers killed was determined as 100%.

As to `CSC(C)C(=NOCc1cccc(Oc2ccccc2)c1)c1ccc(Cl)cc1` (stereo not shown) [Code No. 30 E-form, 1-(4-chlorophenyl)-2-methylthio-O-((3-phenoxyphenyl)methyl) 1-propanone oxime], the LC50 entry with Spotted cutworm (listed as 30 E-form) is “LC50 (ppm) < 1.5”; with Green peach aphid (listed as 30 E-form) it was “LC50 (ppm) < 15”; in the data set on Spinach army worm (listed as 30 E-form), “LC50 (ppm) < 5”; in the data set on American tobacco cutworm (listed as 30 E-form), “LC50 (ppm) < 5”.

Take `CSC(C)C(=NOCc1cccc(Oc2ccccc2)c1)c1ccc(Cl)cc1` (stereo not shown) [Code No. 30 Z-form, 1-(4-chlorophenyl)-2-methylthio-O-((3-phenoxyphenyl)methyl) 1-propanone oxime]: the LC50 result in the data set on Spotted cutworm (listed as 30 Z-form), in the data set on Green peach aphid (listed as 30 Z-form), with Spinach army worm (listed as 30 Z-form) and with American tobacco cutworm (listed as 30 Z-form) was “LC50 (ppm) > 150” each time.

In the case of `CSC(C)C(=NOCc1cccc(Oc2ccccc2)c1)c1ccc(Cl)cc1` (stereo not shown) [Code No. 30, 1-(4-chlorophenyl)-2-methylthio-O-((3-phenoxyphenyl)methyl) 1-propanone oxime], in the data set on Mythimne separata (setting [2]), the lethal rate entry was “exceeding 100%”. This molecule registered a lethal rate in the data set on Mythimne separata (setting [3]) of 100%. In the data set with aphids Aphis fabae, this molecule had a lethal rate of 100% and an aphids killed of 100%. In data set [1], this molecule came in with a kill rate of 100% and a leafhoppers killed of 100%.

On to `CSCC(=NO)c1ccc(Cl)cc1` [compound (III) Code No. 5, 1-(4-chlorophenyl)-2-methylthio ethanone oxime], for which, in the data set with fungal pathogens, the inhibition at 100 ppm is > 90%.
